Measured values as given in patent US20240239775A1, “FXR REGULATOR, PREPARATION METHOD THEREFOR, PHARMACEUTICAL COMPOSITION THEREOF AND USE THEREOF” (QINGDAO RUIJI MEDICAL TECHNOLOGY CO., LTD., priority 2021, published 2024).

Tests used:
FXR = target: T1, FXR (Homo sapiens, UniProt Q96RI1); assay: FXR antagonist screening by TR-FRET (LanthaScreen TR-FRET FXR co-activation assay kit); assay type: biochemical; conditions: Table 1.1, FXR antagonistic activity; TR-FRET with CDCA; geometric means of at least two independent runs
T1 construct: 5 μL of 20 nM FXR-LBD Complete Coregulator buffer G; purchased ThermoFisher PV4833
T1 sequence (Q96RI1 262-486 limits assumed): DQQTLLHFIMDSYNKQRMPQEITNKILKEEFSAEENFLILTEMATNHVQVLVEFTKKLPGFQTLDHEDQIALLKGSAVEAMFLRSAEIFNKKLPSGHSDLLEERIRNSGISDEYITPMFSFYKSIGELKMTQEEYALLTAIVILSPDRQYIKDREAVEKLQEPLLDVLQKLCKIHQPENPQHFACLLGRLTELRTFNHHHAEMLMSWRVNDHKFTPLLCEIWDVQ
How it was run: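 FXR-LBD (20 nM working solution) mixed with compound, CDCA (200 μM working solution) as agonist, Fluorescein-SRC2-2 and Tb-anti-GST antibody in Coregulator buffer G; 10 h at room temperature. Coactivator recruitment read by TR-FRET, triplicate wells.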

Compound	IC50 (FXR) [µM]	melting point
Cc1c(C(=O)O)oc2ccc(S(=O)(=O)N(CCc3ccccc3)c3ccc(N4CCN(C(=O)OC(C)(C)C)CC4)cc3)cc12 [Example F27-S65, 3-methyl-5-(N-(4-(4-(tert-butoxycarbonyl)piperazin-1-yl)phenyl)-N-phenethylsulfamoyl)benzofuran-2-carboxylic acid]	10 to 50	> 380 °C (dec.)
Cc1c(C(=O)O)oc2ccc(S(=O)(=O)N(CCc3ccccc3)c3ccc(N4CCN(C(=O)CC(C)(C)C)CC4)cc3)cc12 [Example F27-S66, 3-methyl-5-(N-(4-(4-(3,3-dimethylbutyryl)piperazin-1-yl)phenyl)-N-phenethylsulfamoyl)benzofuran-2-carboxylic acid]	10 to 50	> 380 °C (dec.)
CCCOC(=O)N1CCN(c2ccc(N(CCc3ccccc3)S(=O)(=O)c3ccc4oc(C(=O)O)c(C)c4c3)cc2)CC1 [Example F27-S67, 3-methyl-5-(N-(4-(4-(propoxycarbonyl)piperazin-1-yl)phenyl)-N-phenethylsulfamoyl)benzofuran-2-carboxylic acid]	10 to 50	> 380 °C (dec.)
CC(=O)N1CCN(c2ccc(N(CCc3ccccc3)S(=O)(=O)c3ccc4oc(C(=O)O)c(C)c4c3)cc2)CC1 [Example F27-S68, 3-methyl-5-(N-(4-(4-acetylpiperazin-1-yl)phenyl)-N-phenethylsulfamoyl)benzofuran-2-carboxylic acid]	50 to 100	183 to 184 °C
Cc1c(C(=O)O)oc2ccc(S(=O)(=O)N(CCc3ccccc3)c3ccc(N4CCN(C(=O)c5ccccc5)CC4)cc3)cc12 [Example F27-S69, 3-methyl-5-(N-(4-(4-benzoylpiperazin-1-yl)phenyl)-N-phenethylsulfamoyl)benzofuran-2-carboxylic acid]	10 to 50	> 380 °C (dec.)
Cc1c(C(=O)O)oc2ccc(S(=O)(=O)N(CCc3ccccc3)c3ccc(N4CCN(Cc5ccccc5)CC4)cc3)cc12 [Example F27-S70, 3-methyl-5-(N-(4-(4-benzylpiperazin-1-yl)phenyl)-N-phenethylsulfamoyl)benzofuran-2-carboxylic acid]	10 to 50	> 380 °C (dec.)
Cc1c(C(=O)O)oc2ccc(S(=O)(=O)N(CCc3ccccc3)c3ccc(N4CCN(C(=O)N(C)C)CC4)cc3)cc12 [Example F27-S71, 3-methyl-5-(N-(4-(4-(dimethylcarbamoyl)piperazin-1-yl)phenyl)-N-phenethylsulfamoyl)benzofuran-2-carboxylic acid]	50 to 100	192 to 193 °C
Cc1c(C(=O)O)oc2ccc(S(=O)(=O)N(CCc3ccccc3)c3ccc(C4CCN(C(=O)OC(C)(C)C)CC4)cc3)cc12 [Example F27-S73, 3-methyl-5-(N-(4-(1-(tert-butoxycarbonyl)piperidin-4-yl)phenyl)-N-phenethylsulfamoyl)benzofuran-2-carboxylic acid]	0.1 to 10	> 380 °C (dec.)
Cc1c(C(=O)O)oc2ccc(S(=O)(=O)N(CCc3ccccc3)c3ccc(N4CCN(C(=O)OC(C)(C)C)CC4)c(C(F)(F)F)c3)cc12 [Example F27-S74, 3-methyl-5-(N-(4-(4-(tert-butoxycarbonyl)piperazin-1-yl)-3-(trifluoromethyl)phenyl)-N-phenethylsulfamoyl)benzofuran-2-carboxylic acid]	0.1 to 10	215 to 216 °C
Cc1c(C(=O)O)oc2ccc(S(=O)(=O)N(CCc3ccccc3)c3ccc(N4CCN(C(=O)OC(C)(C)C)CC4)nc3)cc12 [Example F27-S75, 3-methyl-5-(N-(6-(4-(tert-butoxycarbonyl)piperazin-1-yl)pyridin-3-yl)-N-phenethylsulfamoyl)benzofuran-2-carboxylic acid]	10 to 50	> 380 °C (dec.)
